Test results from patent publication US5622965A, “4-hydroxy-3-nitro-1,2-dihydroquinolin-2-ones and the use thereof as excitatory amino acid and glycine receptor antagonists” (priority 1993, dated 1997).
Where two headings read alike, the source gives them in different places.

How the values were obtained:
[1] = target: glycine/NMDA receptor; test: 1 μM glycine-stimulated [3H]-MK801 binding assay (glycine/NMDA receptor); set-up: species or system rat; conditions: for Ki: glycine/NMDA receptor binding; for potency relative to 5,7-dichlorokynurenic acid (DCK): % of DCK
Description: This assay takes advantage of the fact that the binding of [^3 H]-MK801 to the PCP receptor inside the pore of the NMDA channel is dependent on the presence of both glutamate and glycine. In the absence of glycine but in the presence of glutamate, [^3 H]-MK801 cannot bind effectively to the PCP receptor, because the NMDA channel remains closed and access of [^3 H]-MK801 to the PCP receptor inside the closed channel pore is severely restricted.
The assay is conducted using rat brain membrane homogenates which are enriched in NMDA receptors. The membranes are prepared as follows. Frozen rat brains obtained from Pel-Freez, Rogers, Arkansas) are homogenized in 15 volumes (w/v) of ice cold 0.32M sucrose. The homogenate is spun at 1,000×g for ten minutes. The supernatant is collected and spun for 20 minutes at 44,000×g. The pellet is suspended in 15 volumes of water (relative to original brain weight). The homogenate is again spun at 44,000×g for twenty minutes. The pellet is resuspended in 5 volumes of water and the suspension is freeze-thawed 2 times. After the final thaw cycle, the suspension is brought to 15 volumes with water and spun at 44,000×g for twenty minutes. The pellet is resuspended in 5 volumes of ice-cold 10 mM HEPES, and is titrated to pH 7.4 with KOH containing 0.04% Triton X-100. Membranes are incubated with the Triton/HEPES buffer at 37° C. for 15 minutes. The volume is then brought to 15 with ice-cold 10 mM HEPES, pH 7.4, and spun/washed three times with spins of 44,000×g between washes. The final pellet is suspended in three volumes of 50 mM HEPES, pH 7.4 and the protein concentration is determined with a standard dye-binding protein assay (Bio-Rad, Richmond, Calif.). The suspension is stored at-80° C. until used. Only HPLC grade water is used for all buffers and suspensions/washings. The extensive washings are necessary to remove as much endogenous glycine from the membrane preparation as possible.
Nonspecific binding is defined as the […] presence of PCP (final concentration: 100 μM). To determine the effect of 1 μM glycine on the binding of [3H]-MK801, bound radioactivity in the presence of 10 μM glutamate alone (final concentration) is subtracted from the bound radioactivity in the presence of both 10 μM glummate and 1 μM glycine (final concentration). A 500 nM concentration (final) of 5,7-dichlorokynurenic (DCK) acid is added to all assay tubes. This concentration of the glycine antagonist DCK "buffers" most of the residual endogenous glycine that is not removed by the extensive washing steps that are carried out during the membrane preparation procedure.
The assays are incubated for 120 minutes at room temperature after which time the membrane-bound radioactivity is isolated from the free radioactivity by vacuum filtration through Whatman glass fiber filters that had been pretreated with 0.3% polyethyleneimine. Filtration is accomplished using a Brandel 48 well cell harvester. Filtered membranes are washed three times with 3 ml each of ice cold buffer. Filters are transferred to scintillation vials and 5 ml of scintillation cocktail is added. The vials are shaken overnight and the radioactivity is counted by liquid scintillation spectroscopy. The assays are done in triplicate and all experiments are conducted at least three times.

[2] = system: glycine binding site of the NMDA receptor; conditions: cited from earlier work
[3] = cited from earlier work
[4] = system: neurons; conditions: in words; cited from earlier work
[5] = in words; cited from earlier work
[6] = system: glycine receptor; test: binding to the glycine receptor (general statement); conditions: in words
[7] = target: PCP receptor; conditions: cited from earlier work
[8] = system: rodents; conditions: in words; cited from earlier work
[9] = system: pigeons; conditions: in words; cited from earlier work

With “5,6-dichloro-3-nitro-4-hydroxy-1,2-dihydroquinolin-2-one [Compound 16f]” the Ki [1] was 800 nM.

With `O=c1[nH]c2cc(Cl)cc(Cl)c2[nH]c1=O` [5,7-dichloro-QX] the “potency relative to 5,7-dichlorokynurenic acid (DCK)” value [1] was 20%.

For `O=C(O)c1cc(O)c2c(Cl)cc(Cl)cc2n1` [5,7-dichlorokynurenic acid], the “affinity for the glycine binding site” value ([2]; in words) is given as “relatively high receptor binding affinity” and the blood/brain barrier penetration ([3]; in vivo) is given as “cannot penetrate the blood/brain barrier”.

For `O=C(O)c1cc(O)c2ccc(Cl)cc2n1` [7-Cl-kynurenic acid], the “affinity for the glycine binding site” value ([2]; in words) is given as “relatively high receptor binding affinity” and the blood/brain barrier penetration ([3]; in words) is given as “cannot penetrate the blood/brain barrier”.

In the case of `O=C(O)[C@@H]1C[C@H](CP(=O)(O)O)CCN1` [CGS 19755], the neuroprotective efficacy [4] is given as “neuroprotective efficacy” and the “PCP-like behavioral side effects” value [5] is given as “adverse PCP-like behavioral side effects”.

In the case of `O=c1[nH]c2ccccc2c(O)c1[N+](=O)[O-]` [Compound 16a, 3-Nitro-4-hydroxy-1,2-dihydroquinolin-2-one], the “potency relative to 5,7-dichlorokynurenic acid (DCK)” value [1] is reported as 1.4%, the Ki [1] is reported as 18000 nM and the “binding to the glycine receptor” value [6] is reported as “high binding”. The “selectivity for the glycine receptor” value [6] was “highly selective”.

With `O=c1[nH]c2ccc([N+](=O)[O-])cc2c(O)c1[N+](=O)[O-]` [Compound 16b, 3,6-Dinitro-4-hydroxy-1,2-dihydroquinolin-2-one] the “activity relative to 16a” value ([1]; in words) was “about as active as 16a”.

With `O=c1[nH]c2cc(Cl)cc(Cl)c2c(O)c1[N+](=O)[O-]` [Compound 16c, 5,7-dichloro-3-nitro-4-hydroxy-1,2-dihydroquinolin-2-one] the “potency relative to 5,7-dichlorokynurenic acid (DCK)” value [1] was 19% and the Ki [1] was 1400 nM.

In the case of `NC1CCN(O)C1=O` (stereo not drawn) [HA-966], the “affinity for the glycine binding site” value ([2]; in words) is given as “micromolar affinity”, the “mode of action at the glycine binding site” value ([2]; in words) is given as “partial agonist” and the blood/brain barrier penetration ([3]; in words) is given as “sufficiently penetrates the blood/brain barrier”.

In the case of `O=C(O)C1CC2CC(CP(=O)(O)O)CCC2CN1` (stereo not drawn) [LY274614], the neuroprotective efficacy [4] is given as “neuroprotective efficacy”.

For `C[C@]12N[C@H](Cc3ccccc31)c1ccccc12` [MK-801], the Kd [7] is listed as ~3 nM, the neuroprotective efficacy [4] is listed as “neuroprotective efficacy both in vitro and in vivo” and the “PCP-like behavioral side effects” value [5] is listed as “adverse PCP-like behavioral side effects”.

For `c1ccc(C2(N3CCCCC3)CCCCC2)cc1` [PCP, phencyclidine], the neuroprotective efficacy [4] is listed as “neuroprotective efficacy both in vitro and in vivo”, the “PCP-like behavioral effects in rodents / animal models” value [8] is listed as “behavioral excitation (hyperlocomotion)” and the “PCP-like behavioral effect in pigeons” value [9] is listed as “characteristic katalepsy”.

For `COc1ccc2c(c1)[C@]13CCCC[C@@H]1[C@H](C2)N(C)CC3` [dextromethorphan], the neuroprotective efficacy [4] is listed as “neuroprotective efficacy both in vitro and in vivo”.

For `NCC(=O)O` [glycine], the Kd ([2]; used in Cheng and Prusoff equation, read-out: known affinity of glycine for the glycine binding site) is listed as 100 nM.

In the case of `O=C(O)c1cc2ccccc2[nH]1` [indole-2-carboxylic acid], the “affinity for the glycine binding site” value ([2]; in words) is listed as “relatively high receptor binding affinity” and the blood/brain barrier penetration ([3]; in words) is listed as “cannot penetrate the blood/brain barrier”.

For `CNC1(c2ccccc2Cl)CCCCC1=O` (stereo not drawn) [ketamine], the neuroprotective efficacy [4] is given as “neuroprotective efficacy both in vitro and in vivo”.
